Test results reported in patent publication US20240116985A1, “STAPLED PEPTIDES AND METHODS THEREOF” (priority 2020, published 2024).

Each compound was assayed against T1, full-length beta-Catenin (Uniprot ID P35222) (Homo sapiens, UniProt P35222) (assay: Fluorescence polarization IC50 (beta-catenin / 5FAM-TCF4 10-53 competition)). Conditions: fluorescence polarization; read-out: beta-Catenin FP IC50.
T1 construct: 10 nM full-length beta-Catenin (Uniprot ID P35222)
T1 sequence (P35222 1-781): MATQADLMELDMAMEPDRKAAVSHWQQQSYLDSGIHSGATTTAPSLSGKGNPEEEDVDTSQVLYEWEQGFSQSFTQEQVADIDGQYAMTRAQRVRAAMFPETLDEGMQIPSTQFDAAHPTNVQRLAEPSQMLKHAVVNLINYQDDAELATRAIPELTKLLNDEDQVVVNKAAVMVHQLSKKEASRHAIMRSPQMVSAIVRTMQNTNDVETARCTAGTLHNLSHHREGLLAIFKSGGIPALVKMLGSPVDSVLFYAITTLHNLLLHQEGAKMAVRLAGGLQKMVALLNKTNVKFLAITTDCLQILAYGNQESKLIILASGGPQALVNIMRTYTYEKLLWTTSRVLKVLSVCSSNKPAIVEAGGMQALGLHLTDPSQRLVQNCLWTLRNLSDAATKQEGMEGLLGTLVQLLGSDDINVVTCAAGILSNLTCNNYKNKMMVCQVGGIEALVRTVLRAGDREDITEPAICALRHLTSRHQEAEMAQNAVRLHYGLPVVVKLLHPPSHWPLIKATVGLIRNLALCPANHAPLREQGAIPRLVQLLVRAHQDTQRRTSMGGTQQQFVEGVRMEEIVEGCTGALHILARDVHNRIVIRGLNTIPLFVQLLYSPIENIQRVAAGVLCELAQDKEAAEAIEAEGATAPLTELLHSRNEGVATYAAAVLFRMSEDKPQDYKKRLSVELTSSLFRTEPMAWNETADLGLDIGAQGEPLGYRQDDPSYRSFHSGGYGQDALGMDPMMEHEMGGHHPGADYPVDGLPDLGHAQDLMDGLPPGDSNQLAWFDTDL
Assay type: binding

Row | SMILES | IC50
1 | CC(=O)N1CCC[C@]12CC=CCCCC1(CCCC=CCCCOC(=O)N3CC[C@@](C(=O)N[C@@H](Cc4ccsc4)C(=O)N[C@@H](Cc4csc5ccccc45)C(=O)N[C@H](C(N)=O)C(C)C)(C3)NC(=O)[C@H](CC(N)=O)NC(=O)[C@H](Cc3ccccc3)NC(=O)[C@H](C)NC(=O)[C@H](C)NC(=O)[C@H]([C@@H](C)O)NC(=O)[C@H](CC(N)=O)NC1=O)NC(=O)[C@H](CC(C)(C)C)NC(=O)[C@H](CC(=O)O)NC2=O (stereo partly drawn) [I-1879, Ac-PL3-Asp-Npg-B5-Asn-Thr-Ala-Ala-Phe-Asn-PyrS2-3Thi-BztA-Val-NH2] | 567 nM
2 | CC(=O)N1CCC[C@]12CC=CCCCC1(CCCC=CCCCOC(=O)N3CC[C@@](C(=O)N[C@@H](Cc4ccsc4)C(=O)N[C@@H](Cc4csc5ccccc45)C(=O)N[C@@H](CC(C)C)C(N)=O)(C3)NC(=O)[C@H](CC(N)=O)NC(=O)[C@H](Cc3ccccc3)NC(=O)[C@H](C)NC(=O)[C@H](C)NC(=O)[C@H]([C@@H](C)O)NC(=O)[C@H](CC(N)=O)NC1=O)NC(=O)[C@H](CC(C)(C)C)NC(=O)[C@H](CC(=O)O)NC2=O (stereo partly drawn) [I-1880, Ac-PL3-Asp-Npg-B5-Asn-Thr-Ala-Ala-Phe-Asn-PyrS2-3Thi-BztA-Leu-NH2] | 868 nM
3 | CC(=O)N1CCC[C@]12CC=CCCCC1(CCCC=CCCCOC(=O)N3CC[C@@](C(=O)N[C@@H](Cc4ccsc4)C(=O)N[C@@H](Cc4csc5ccccc45)C(=O)N[C@@H](CC(C)C)C(N)=O)(C3)NC(=O)[C@H](CC(N)=O)NC(=O)[C@H](Cc3ccccc3)NC(=O)[C@H](C)NC(=O)[C@H](C)NC(=O)[C@H]([C@@H](C)O)NC(=O)[C@H](CC(N)=O)NC1=O)NC(=O)[C@H](CC(C)(C)C)NC(=O)[C@H](CC(=O)O)NC2=O (stereo partly drawn) [I-1881, Ac-PL3-Asp-Npg-B5-Asn-Thr-Ala-Ala-Phe-Asn-PyrS2-3Thi-BztA-Leu-NH2] | 743 nM
4 | CC(=O)N1CCC[C@]12CC=CCCCC1(CCCC=CCCCOC(=O)N3CC[C@@](C(=O)N[C@@H](Cc4ccsc4)C(=O)N[C@@H](Cc4csc5ccccc45)C(=O)N[C@@H](CCC(N)=O)C(N)=O)(C3)NC(=O)[C@H](CCCNC(=N)N)NC(=O)[C@H](Cc3ccccc3)NC(=O)[C@H](C)NC(=O)[C@H](C)NC(=O)[C@H]([C@@H](C)O)NC(=O)[C@H](CC(N)=O)NC1=O)NC(=O)[C@H](CC(C)(C)C)NC(=O)[C@H](CC(=O)O)NC2=O (stereo partly drawn) [I-1882, Ac-PL3-Asp-Npg-B5-Asn-Thr-Ala-Ala-Phe-Arg-PyrS2-3Thi-BztA-Gln-NH2] | 397 nM
5 | CC(=O)N1CCC[C@]12CC=CCCCC1(CCCC=CCCCOC(=O)N3CC[C@@](C(=O)N[C@@H](Cc4ccsc4)C(=O)N[C@@H](Cc4csc5ccccc45)C(=O)N[C@@H](CCC(N)=O)C(N)=O)(C3)NC(=O)[C@H](CCCNC(=N)N)NC(=O)[C@H](Cc3ccccc3)NC(=O)[C@H](C)NC(=O)[C@H](C)NC(=O)[C@H]([C@@H](C)O)NC(=O)[C@H](CC(N)=O)NC1=O)NC(=O)[C@H](CC(C)(C)C)NC(=O)[C@H](CC(=O)O)NC2=O (stereo partly drawn) [I-1883, Ac-PL3-Asp-Npg-B5-Asn-Thr-Ala-Ala-Phe-Arg-PyrS2-3Thi-BztA-Gln-NH2] | 884 nM
6 | CC(=O)N1CCC[C@]12CC=CCCCC1(CCCC=CCCCOC(=O)N3CC[C@@](C(=O)N[C@@H](Cc4ccsc4)C(=O)N[C@@H](Cc4csc5ccccc45)C(=O)N[C@@H](CCC(N)=O)C(N)=O)(C3)NC(=O)[C@H](CC(N)=O)NC(=O)[C@H](Cc3ccccc3)NC(=O)[C@H](C)NC(=O)[C@H](C)NC(=O)[C@H]([C@@H](C)O)NC(=O)[C@H](CC(N)=O)NC1=O)NC(=O)[C@H](CC1CCCCC1)NC(=O)[C@H](CC(=O)O)NC2=O (stereo partly drawn) [I-1884, Ac-PL3-Asp-Cha-B5-Asn-Thr-Ala-Ala-Phe-Asn-PyrS2-3Thi-BztA-Gln-NH2] | 249 nM
7 | CC(=O)N1CCC[C@]12CC=CCCCC1(CCCC=CCCCOC(=O)N3CC[C@@](C(=O)N[C@@H](Cc4ccsc4)C(=O)N[C@@H](Cc4csc5ccccc45)C(=O)N[C@@H](CCC(N)=O)C(N)=O)(C3)NC(=O)[C@H](CC(N)=O)NC(=O)[C@H](Cc3ccccc3)NC(=O)[C@H](C)NC(=O)[C@H](C)NC(=O)[C@H]([C@@H](C)O)NC(=O)[C@H](CC(N)=O)NC1=O)NC(=O)[C@H](CC1CCCCC1)NC(=O)[C@H](CC(=O)O)NC2=O (stereo partly drawn) [I-1885, Ac-PL3-Asp-Cha-B5-Asn-Thr-Ala-Ala-Phe-Asn-PyrS2-3Thi-BztA-Gln-NH2] | 255 nM
8 | CC(=O)N1CCC[C@]12CC=CCCCC1(CCCC=CCCCOC(=O)N3CC[C@@](C(=O)N[C@@H](Cc4ccsc4)C(=O)N[C@@H](Cc4csc5ccccc45)C(=O)N[C@@H](CCC(N)=O)C(N)=O)(C3)NC(=O)[C@H](CC(N)=O)NC(=O)[C@H](Cc3ccccc3)NC(=O)[C@H](C)NC(=O)[C@H](C)NC(=O)[C@H](CCCNC(=N)N)NC(=O)[C@H](CC(N)=O)NC1=O)NC(=O)[C@H](CC(C)(C)C)NC(=O)[C@H](CC(=O)O)NC2=O (stereo partly drawn) [I-1892, Ac-PL3-Asp-Npg-B5-Asn-Arg-Ala-Ala-Phe-Asn-PyrS2-3Thi-BztA-Gln-NH2] | 1420 nM

Now from value to compound:

Row | IC50 | SMILES
9 | 75 nM | CC(=O)N1CCC[C@]12CC=CCCCC1(CCCC=CCCCOC(=O)N3CC[C@@](C(=O)N[C@@H](CC4CCCC4)C(=O)N[C@@H](Cc4csc5ccccc45)C(=O)N[C@@H](CO)C(N)=O)(C3)NC(=O)[C@H](CC(C)C)NC(=O)[C@H](Cc3ccccc3)NC(=O)[C@H](C)NC(=O)[C@H](C)NC(=O)[C@H](Cc3cccc(C(=O)O)c3)NC(=O)[C@H](CC(=O)O)NC1=O)NC(=O)[C@H](CC(C)(C)C)NC(=O)[C@H](CC(=O)O)NC2=O (stereo partly drawn) [I-1896, Ac-PL3-Asp-Npg-B5-Asp-3COOHF-Ala-Ala-Phe-Leu-PyrS2-CypA-BztA-Ser-NH2]
10 | 23 nM | CC(=O)N1CCC[C@]12CC=CCCCC1(CCCC=CCCCOC(=O)N3CC[C@@](C(=O)N[C@@H](Cc4ccccc4Cl)C(=O)N[C@@H](Cc4csc5ccccc45)C(=O)N[C@@H](CO)C(=O)N[C@@H](C)CO)(C3)NC(=O)[C@H](CC(C)C)NC(=O)[C@H](Cc3ccccc3)NC(=O)[C@H](C)NC(=O)[C@H](C)NC(=O)[C@H](Cc3cccc(C(=O)O)c3)NC(=O)[C@H](CC(=O)O)NC1=O)NC(=O)[C@H](CC(C)(C)C)NC(=O)[C@H](CC(=O)O)NC2=O (stereo partly drawn) [I-1907, Ac-PL3-Asp-Npg-B5-Asp-3COOHF-Ala-Ala-Phe-Leu-PyrS2-2C1F-BztA-Ser-Alao1]
11 | 17 nM | CC(=O)N1CCC[C@]12CC=CCCCC1(CCCC=CCCCOC(=O)N3CC[C@@](C(=O)N[C@@H](Cc4ccsc4)C(=O)N[C@@H](Cc4csc5ccccc45)C(=O)N[C@@H](Cc4ccccc4)C(N)=O)(C3)NC(=O)[C@H](CC(C)C)NC(=O)[C@H](Cc3ccccc3)NC(=O)[C@H](C)NC(=O)[C@H](Cc3c[nH]cn3)NC(=O)[C@H](Cc3cccc(C(=O)O)c3)NC(=O)[C@H](CC(=O)O)NC1=O)NC(=O)[C@H](CC(C)(C)C)NC(=O)[C@H](CC(=O)O)NC2=O (stereo partly drawn) [I-1910, Ac-PL3-Asp-Npg-B5-Asp-3COOHF-His-Ala-Phe-Leu-PyrS2-3Thi-BztA-Phe-NH2]
12 | 22 nM | CC(=O)N1CCC[C@]12CC=CCCCC1(CCCC=CCCCOC(=O)N3CC[C@@](C(=O)N[C@@H](Cc4ccsc4)C(=O)N[C@@H](Cc4csc5ccccc45)C(=O)N[C@@H](CCC(N)=O)C(N)=O)(C3)NC(=O)[C@H](CC(C)C)NC(=O)[C@H](Cc3ccccc3)NC(=O)[C@H](C)NC(=O)[C@H](C)NC(=O)[C@H](CN3CCC[C@H](C(=O)O)C3)NC(=O)[C@H](CC(=O)O)NC1=O)NC(=O)[C@H](CC(C)(C)C)NC(=O)[C@H](CC(=O)O)NC2=O (stereo partly drawn) [I-1921, Ac-PL3-Asp-Npg-B5-Asp-S3COOPipA-Ala-Ala-Phe-Leu-PyrS2-3Thi-BztA-Gln-NH2]
13 | 457 nM | CC(=O)N1CCC[C@]12CC=CCCCC1(CCCC=CCCCOC(=O)N3CC[C@@](C(=O)N[C@@H](Cc4ccccc4)C(=O)N[C@@H](Cc4csc5ccccc45)C(=O)N[C@@H](CCO)C(N)=O)(C3)NC(=O)[C@H](CCO)NC(=O)[C@H](Cc3ccccc3)NC(=O)[C@H](C)NC(=O)[C@H](CCCCNC(C)C)NC(=O)[C@H](CCC(N)=O)NC(=O)[C@H](CC(=O)O)NC1=O)NC(=O)[C@H](CC1CCCCC1)NC(=O)[C@H](CC(N)=O)NC2=O (stereo partly drawn) [I-1922, Ac-PL3-Asn-Cha-B5-Asp-Gln-iPrLys-Ala-Phe-Hse-PyrS2-Phe-BztA-Hse-NH2]
14 | 1610 nM | CC(=O)N1CCC[C@]12CC=CCCCC1(CCCC=CCCCOC(=O)N3CC[C@@](C(=O)N[C@@H](Cc4ccccc4)C(=O)N[C@@H](Cc4csc5ccccc45)C(=O)N[C@@H](CCO)C(N)=O)(C3)NC(=O)[C@H](CC(N)=O)NC(=O)[C@H](Cc3cccc(Cl)c3)NC(=O)[C@H](C)NC(=O)[C@H](CCCCNC(C)C)NC(=O)[C@H](CCC(N)=O)NC(=O)[C@H](CC(=O)O)NC1=O)NC(=O)[C@H](CC1CCCCC1)NC(=O)[C@H](CC(N)=O)NC2=O (stereo partly drawn) [I-1924, Ac-PL3-Asn-Cha-B5-Asp-Gln-iPrLys-Ala-3C1F-Asn-PyrS2-Phe-BztA-Hse-NH2]
15 | 475 nM | CC(=O)N1CCC[C@]12CC=CCCCC1(CCCC=CCCCOC(=O)N3CC[C@@](C(=O)N[C@@H](Cc4ccccc4)C(=O)N[C@@H](Cc4csc5ccccc45)C(=O)N[C@@H](CCO)C(N)=O)(C3)NC(=O)[C@H](CC(N)=O)NC(=O)[C@H](Cc3cccc(C(N)=O)c3)NC(=O)[C@H](C)NC(=O)[C@H](CCCCNC(C)C)NC(=O)[C@H](CCC(N)=O)NC(=O)[C@H](CC(=O)O)NC1=O)NC(=O)[C@H](CC1CCCCC1)NC(=O)[C@H](CC(N)=O)NC2=O (stereo partly drawn) [I-1925, Ac-PL3-Asn-Cha-B5-Asp-Gln-iPrLys-Ala-3cbmf-Asn-PyrS2-Phe-BztA-Hse-NH2]
